Like-named read-outs stand apart in the source and are kept apart here.
Columns and labels:
TTR = TTR (Homo sapiens (Human), UniProt P02766); assay: biochemical; type: binding; settings: FITC-coupled TTR FP probe; read-out: TTR FP IC50
Method: Compound binding to TTR was assessed in the fluorescence polarization assay. […] Each well contained 200 nM TTR and 100 nM FITC-diclofenac in the FP buffer (10 mM Tris-HCl pH 7.5, 150 mM NaCl, 0.01% CHAPS, 0.01% Prionex) along with test compounds. Nonspecific binding was determined in the presence of 500 μM unlabeled diclofenac (Sigma-Aldrich). Reactions with test compounds were incubated overnight at 4° C. and FP was measured on SpectramaxM5e plate reader (Molecular Devices).

RBP4 = RBP4 (Homo sapiens (Human), UniProt P02753); assay: RBP4 SPA binding assay (displacement of 3H-retinol)
RBP4-TTR interaction = RBP4-TTR interaction (Homo sapiens (Human), UniProt P02753); assay: HTRF RBP4-TTR interaction assay; type: biochemical
Method: HTRF Cryptate labeling kit from CisBio (Cisbio, cat #62EUSPEA, Bedfored, MA) was used to label TTR with Eu^3+ Cryptate. The assay was performed in a final assay volume of 16 μl in the buffer that contained 10 mM Tris-HCl pH 7.5, 1 mM DTT, 0.05% NP-40, 0.05% Prionex, 6% glycerol, and 400 mM KF. […] All of the reactions were performed under dim red light in the dark. The plates were read in the SpectraMax M5e Multimode Plate Reader (Molecular Devices, Sunnyvale, CA) after the overnight incubation at 4° C. […] The HTRF signal was expressed as the ratio of fluorescence intensity: Flu668/Flu620×10,000.

[1] = fixed 10 nM 3H-retinol, read-out: RBP4 SPA IC50
[2] = 1 μM retinol, read-out: RBP4-TTR HTRF IC50

Row | IC50 (TTR) [µM] | IC50 (RBP4) [µM] | IC50 (RBP4; [1]) [µM] | IC50 (RBP4-TTR interaction; [2]) [µM] | SMILES | IC50 (RBP4-TTR interaction) [µM]
1 | 8.8 | > 3 | – | – | Cc1cc(C(=O)O)nc(N2CCC(Oc3ccccc3C(F)(F)F)C2)n1 (racemic) [(±)-27, (±)-6-Methyl-2-(3-(2-(trifluoromethyl)phenoxy)pyrrolidin-1-yl)pyrimidine-4-carboxylic Acid] | –
2 | 1.1 | 0.48 | – | – | Cc1cc(C(=O)O)nc(N2CCCC(COc3ccccc3C(F)(F)F)C2)n1 (racemic) [(±)-62, (±)-6-Methyl-2-(3-((2-(trifluoromethyl)phenoxy)methyl)piperidin-1-yl)pyrimidine-4-carboxylic Acid] | 15
3 | 1.6 | 0.26 | – | – | Cc1cc(C(=O)O)nc(N2CCC3(CCN(c4ccccc4C(F)(F)F)C3)C2)n1 (racemic) [(±)-67, (±)-6-Methyl-2-(7-(2-(trifluoromethyl)phenyl)-2,7-diazaspiro[4.4]nonan-2-yl)pyrimidine-4-carboxylic Acid] | –
4 | 3.5 | – | 0.9 | 7.5 | Cc1cc(C(=O)O)nc(N2CCC(CNc3ccccc3C(F)(F)F)C2)n1 (racemic) [(±)-76, (±)-6-Methyl-2-(3-(((2-(trifluoromethyl)phenyl)amino)methyl)pyrrolidin-1-yl)pyrimidine-4-carboxylic Acid] | –
5 | 13 | > 3 | – | – | Cc1cc(C(=O)O)nc(N2CCC(OCc3ccccc3C(F)(F)F)C2)n1 (racemic) [(±)-80, (±)-6-Methyl-2-(3-((2-(trifluoromethyl)benzyl)oxy)pyrrolidin-1-yl)pyrimidine-4-carboxylic Acid] | –
6 | 7.4 | – | 0.13 | 0.54 | Cc1cc(C(=O)O)nc(N2CCC(COc3ccccc3C(F)(F)F)C2)c1 (racemic) [(±)-95, (±)-4-Methyl-6-(3-((2-(trifluoromethyl)phenoxy)methyl)pyrrolidin-1-yl)picolinic Acid] | –
7 | 1.88 | 2.35 | – | – | O=C(O)c1ccc(F)c(N2CCC(COc3ccccc3C(F)(F)F)C2)c1 (racemic) [(±)-98, (±)-4-Fluoro-3-(3-((2-(trifluoromethyl)phenoxy)methyl)pyrrolidin-1-yl)benzoic Acid] | –
8 | 4.2 | – | 0.081 | 0.7 | Cc1cc(C(=O)NS(C)(=O)=O)nc(N2CCC(COc3ccccc3C(F)(F)F)C2)n1 (racemic) [(±)-99, (±)-6-Methyl-N-(methylsulfonyl)-2-(3-((2-(trifluoromethyl)phenoxy)methyl)pyrrolidin-1-yl)pyrimidine-4-carboxamide] | –
9 | > 30 | – | 0.089 | > 30 | CNC(=O)c1cc(C)nc(N2CCC(COc3ccccc3C(F)(F)F)C2)n1 (racemic) [(±)-101, (±)-N,6-dimethyl-2-(3-((2-(trifluoromethyl)phenoxy)methyl)pyrrolidin-1-yl)pyrimidine-4-carboxamide] | –
10 | 10.5 | – | 0.23 | 1.3 | Cc1cc(C(=O)O)nc(N2CCC(CSc3ccccc3C(F)(F)F)C2)n1 (racemic) [Compound (±)-71, (±)-6-Methyl-2-(3-(((2-(trifluoromethyl)phenyl)thio)methyl)pyrrolidin-1-yl)pyrimidine-4-carboxylic Acid] | –
11 | > 30 | – | 0.13 | 0.45 | Cc1cc(C(=O)O)nc(N2CCC(COc3ccccc3C(C)(C)C)C2)n1 (racemic) [Compound (±)-83, (±)-2-(3-((2-(Tert-butyl)phenoxy)methyl)pyrrolidin-1-yl)-6-methylpyrimidine-4-carboxylic Acid] | –
12 | > 30 | – | 0.16 | 0.54 | Cc1cc(C(=O)O)nc(N2CCC(COc3ccccc3C3CCCC3)C2)n1 (racemic) [Compound (±)-84, (±)-2-(3-((2-Cyclopentylphenoxy)methyl)pyrrolidin-1-yl)-6-methylpyrimidine-4-carboxylic Acid] | –
13 | > 30 | 0.21 | – | – | Cc1cc(C(=O)O)nc(N2CCC(COc3ccccc3C3CCCCC3)C2)n1 (racemic) [Compound (±)-85, (±)-2-(3-((2-Cyclohexylphenoxy)methyl)pyrrolidin-1-yl)-6-methylpyrimidine-4-carboxylic Acid] | –
14 | > 30 | – | 0.52 | 3.7 | Cc1cc(C(=O)O)nc(N2CCC(COc3cnccc3C(F)(F)F)C2)n1 (racemic) [Compound (±)-92, (±)-6-Methyl-2-(3-(((4-(trifluoromethyl)pyridin-3-yl)oxy)methyl)pyrrolidin-1-yl)pyrimidine-4-carboxylic Acid] | –
15 | > 30 | 0.66 | – | – | Cc1cc(C(=O)O)nc(N2CCC(COc3cccnc3C(F)(F)F)C2)n1 (racemic) [Compound (±)-93, (±)-6-Methyl-2-(3-(((2-(trifluoromethyl)pyridin-3-yl)oxy)methyl)pyrrolidin-1-yl)pyrimidine-4-carboxylic Acid] | –
16 | 11 | 1.67 | – | – | O=C(O)c1ccnc(N2CCC(COc3ccccc3C(F)(F)F)C2)n1 (racemic) [Compound (±)-94, (±)-2-(3-((2-(Trifluoromethyl)phenoxy)methyl)pyrrolidin-1-yl)pyrimidine-4-carboxylic Acid] | –
17 | 25 | > 3 | – | – | O=C(O)c1cccc(N2CCC(COc3ccccc3C(F)(F)F)C2)n1 (racemic) [Compound (±)-96, (±)-6-(3-((2-(Trifluoromethyl)phenoxy)methyl)pyrrolidin-1-yl)picolinic acid] | –
18 | 4.9 | – | 0.68 | 1.3 | O=C(O)c1cccnc1N1CCC(COc2ccccc2C(F)(F)F)C1 (racemic) [Compound (±)-97, (±)-2-(3-((2-(Trifluoromethyl)phenoxy)methyl)pyrrolidin-1-yl)nicotinic Acid] | –
19 | > 30 | – | 0.062 | 2.3 | Cc1cc(C(N)=O)nc(N2CCC(COc3ccccc3C(F)(F)F)C2)n1 (racemic) [Compound (±)-100, (±)-6-Methyl-2-(3-((2-(trifluoromethyl)phenoxy)methyl)pyrrolidin-1-yl)pyrimidine-4-carboxamide] | –
20 | 4.1 | – | 0.062 | 19 | Cc1cc(C(=O)NC2CC2)nc(N2CCC(COc3ccccc3C(F)(F)F)C2)n1 (racemic) [Compound (±)-102, (±)-N-Cyclopropyl-6-methyl-2-(3-((2-(trifluoromethyl)phenoxy)methyl)pyrrolidin-1-yl)pyrimidine-4-carboxamide] | –

Row | SMILES | IC50 (TTR) [µM] | IC50 (RBP4) [µM] | IC50 (RBP4; [1]) [µM] | IC50 (RBP4-TTR interaction; [2]) [µM] | IC50 (RBP4-TTR interaction) [µM]
21 | Cc1cc(-c2nn[nH]n2)nc(N2CCC(COc3ccccc3C(F)(F)F)C2)n1 (racemic) [(±)-103, (±)-4-Methyl-6-(2H-tetrazol-5-yl)-2-(3-((2-(trifluoromethyl)phenoxy)methyl)pyrrolidin-1-yl)pyrimidine] | 1.26 | 0.086 | – | – | 1.6
22 | Cc1cc(C(=O)O)nc(N2CCC(COc3cccc(Cl)c3C(F)(F)F)C2)n1 (racemic) [Compound (±)-86, (k)-2-(3-((3-Chloro-2-(trifluoromethyl)phenoxy)methyl)pyrrolidin-1-yl)-6-methylpyrimidine-4-carboxylic Acid] | 3.9 | – | 0.18 | – | –
23 | Cc1cc(C(=O)O)nc(N2CCC(COc3ccc(F)cc3C(F)(F)F)C2)n1 (racemic) [Compound (±)-87, (W)-2-(3-((4-Fluoro-2-(trifluoromethyl)phenoxy)methyl)pyrrolidin-1-yl)-6-methylpyrimidine-4-carboxylic Acid] | 3.9 | – | 0.24 | 0.87 | –
24 | Cc1cc(C(=O)O)nc(N2CCC(COc3cc(F)ccc3C(F)(F)F)C2)n1 (racemic) [Compound (±)-88, (±)-2-(3-((5-Fluoro-2-(trifluoromethyl)phenoxy)methyl)pyrrolidin-1-yl)-6-methylpyrimidine-4-carboxylic Acid] | 13 | – | 0.13 | 0.3 | –
25 | Cc1cc(C(=O)O)nc(N2CCC(COc3c(F)cccc3C(F)(F)F)C2)n1 (racemic) [Compound (±)-89, (±)-2-(3-((2-Fluoro-6-(trifluoromethyl)phenoxy)methyl)pyrrolidin-1-yl)-6-methylpyrimidine-4-carboxylic Acid] | 1.9 | – | 0.3 | 1 | –
26 | COc1ccc(C(F)(F)F)c(OCC2CCN(c3nc(C)cc(C(=O)O)n3)C2)c1 (racemic) [Compound (±)-90, (k)-2-(3-((5-Methoxy-2-(trifluoromethyl)phenoxy)methyl)pyrrolidin-1-yl)-6-methylpyrimidine-4-carboxylic Acid] | > 30 | – | > 3 | – | –
27 | Cc1cc(C(=O)O)nc(N2CCC(COc3cc(C(F)(F)F)cc(C(F)(F)F)c3)C2)n1 (racemic) [Compound (±)-91, (k)-2-(3-((3,5-Bis(trifluoromethyl)phenoxy)methyl)pyrrolidin-1-yl)-6-methylpyrimidine-4-carboxylic Acid] | > 30 | – | 1.6 | – | –
28 | Cc1cc(C(=O)O)nc(N2CC(Oc3ccccc3C(F)(F)F)C2)n1 [Compound 32, 6-Methyl-2-(3-(2-(trifluoromethyl)phenoxy)azetidin-1-yl)pyrimidine-4-carboxylic Acid] | 13.5 | – | – | – | –

Source: patent US20230348415A1, “BISPECIFIC ANTAGONISTS OF RETINOL-BINDING PROTEIN 4 THAT STABILIZE TRANSTHYRETIN TETRAMERS, THEIR PREPARATION, AND USE IN THE TREATMENT OF COMMON AGE-RELATED COMORBIDITIES” (The Trustees of Columbia University in the City of New York, priority 2020, published 2023)
